Reference: patent US11925653B2, “Combination therapy effective against microorganisms, including drug resistant microorganisms” (Fleurir ABX LLC, priority 2021, dated 2024)

Legend:
[1] = tested on: bacteria; assay: spontaneous mutational frequency (SMF; resistance); assay type: cell-based; settings: resistant colonies observed divided by total inoculum; plates with 4-fold MIC of the combination or 2-fold MIC of each antibiotic alone
Protocol: MIC was further evaluated to confirm resistance, and the spontaneous mutational frequency was calculated based on the following equation: […]
The spontaneous mutational frequency (SMF; resistance) was calculated as the number of resistant colonies observed divided by the total inoculum.

[2] = tested on: E. faecalis; settings: cited from earlier work
[3] = tested on: H. influenzae; settings: cited from earlier work
[4] = representative pharmacokinetic parameters; assay type: in vivo; settings: Dose: Fosfomycin 3000 mg, trimethoprim 720 mg
Source text: The therapeutically effective amount may be modified by pharmacokinetic, and pharmacodynamic analysis as is understood in the field. In some embodiments, the novel composition may be provided prophylactically or preventatively or protectively, which may, in some instances, be at or below a therapeutically effective amount.

kel (elimination rate constant) [4] [h⁻¹]	Tmax ([4]; sulfamethoxazole 3600 mg) [h]	SMILES	frequency of spontaneous mutants resistant (spontaneous mutational frequency, SMF) [1]	MIC of co-trimoxazole, per component [2] [µg/mL]	MIC of co-trimoxazole, per component [3] [µg/mL]
–	–	O=C1CN(/N=C/c2ccc([N+](=O)[O-])o2)C(=O)N1 [nitrofurantoin]	3.40×10^−8	–	–
0.08	2	COc1cc(Cc2cnc(N)nc2N)cc(OC)c1OC [trimethoprim, 2,4-diamino-5-(3,4,5-trimethoxybenzyl)pyrimidine]	–	2	0.5
–	–	Cc1cc(NS(=O)(=O)c2ccc(N)cc2)no1 [sulfamethoxazole, N1-(5-methyl-3-isoxazolyl)sulfanilamide]	–	38	≤ 9.5
